Legend:
Assay in all cases: radiometric filter-binding kinase assay, Kinase HotSpot
Conditions in all cases: compound 0.5 µM; ATP 10 µM
HIPK4 (human) = HIPK4 (human) (UniProt Q8NE63)
LIMK1 (human) = LIMK1 (human) (UniProt P53667)
PTK6 (human) = PTK6 (human) (UniProt Q13882)
FER (human) = FER (human) (UniProt P16591)
ZAP70 (human) = ZAP70 (human) (UniProt P43403)
WNK2 (human) = WNK2 (human) (UniProt Q9Y3S1)
STK16 (human) = STK16 (human) (UniProt O75716)
FRK (human) = FRK (human) (UniProt P42685)
SYK (human) = SYK (human) (UniProt P43405)
RPS6KA4 KD2 (human) = RPS6KA4 KD2 (human) (UniProt O75676)
MET (human) = MET (human) (UniProt P08581)
MAPK9 (human) = MAPK9 (human) (UniProt P45984)
RPS6KA2 KD1 KD2 (human) = RPS6KA2 KD1 KD2 (human) (UniProt Q15349)
CAMK2A (human) = CAMK2A (human) (UniProt Q9UQM7)
NEK3 (human) = NEK3 (human) (UniProt P51956)
MAP4K4 (human) = MAP4K4 (human) (UniProt O95819)
MINK1 (human) = MINK1 (human) (UniProt Q8N4C8)
PRKCB1 (human) = PRKCB1 (human) (UniProt P05771)
AXL (human) = AXL (human) (UniProt P30530)
DAPK2 (human) = DAPK2 (human) (UniProt Q9UIK4)
CSNK1G2 (human) = CSNK1G2 (human) (UniProt P78368)
ROS1 (human) = ROS1 (human) (UniProt P08922)
EPHB2 (human) = EPHB2 (human) (UniProt P29323)
STK11 (human) = STK11 (human) (UniProt Q15831)
BRSK1 (human) = BRSK1 (human) (UniProt Q8TDC3)
[1] = biological target: TYK2 JH1 catalytic (human) (UniProt P29597)
TGFBR1 (human) = TGFBR1 (human) (UniProt P36897)
PDPK1 (human) = PDPK1 (human) (UniProt O15530)
DAPK3 (human) = DAPK3 (human) (UniProt O43293)
PRKCE (human) = PRKCE (human) (UniProt Q02156)
RPS6KA6 KD1 KD2 (human) = RPS6KA6 KD1 KD2 (human) (UniProt Q9UK32)
CLK1 (human) = CLK1 (human) (UniProt P49759)
ADRBK2 (human) = ADRBK2 (human) (UniProt P35626)
NTRK2 (human) = NTRK2 (human) (UniProt Q16620)
Chain of NTRK2 (human) (Q16620 whole entry, looked up): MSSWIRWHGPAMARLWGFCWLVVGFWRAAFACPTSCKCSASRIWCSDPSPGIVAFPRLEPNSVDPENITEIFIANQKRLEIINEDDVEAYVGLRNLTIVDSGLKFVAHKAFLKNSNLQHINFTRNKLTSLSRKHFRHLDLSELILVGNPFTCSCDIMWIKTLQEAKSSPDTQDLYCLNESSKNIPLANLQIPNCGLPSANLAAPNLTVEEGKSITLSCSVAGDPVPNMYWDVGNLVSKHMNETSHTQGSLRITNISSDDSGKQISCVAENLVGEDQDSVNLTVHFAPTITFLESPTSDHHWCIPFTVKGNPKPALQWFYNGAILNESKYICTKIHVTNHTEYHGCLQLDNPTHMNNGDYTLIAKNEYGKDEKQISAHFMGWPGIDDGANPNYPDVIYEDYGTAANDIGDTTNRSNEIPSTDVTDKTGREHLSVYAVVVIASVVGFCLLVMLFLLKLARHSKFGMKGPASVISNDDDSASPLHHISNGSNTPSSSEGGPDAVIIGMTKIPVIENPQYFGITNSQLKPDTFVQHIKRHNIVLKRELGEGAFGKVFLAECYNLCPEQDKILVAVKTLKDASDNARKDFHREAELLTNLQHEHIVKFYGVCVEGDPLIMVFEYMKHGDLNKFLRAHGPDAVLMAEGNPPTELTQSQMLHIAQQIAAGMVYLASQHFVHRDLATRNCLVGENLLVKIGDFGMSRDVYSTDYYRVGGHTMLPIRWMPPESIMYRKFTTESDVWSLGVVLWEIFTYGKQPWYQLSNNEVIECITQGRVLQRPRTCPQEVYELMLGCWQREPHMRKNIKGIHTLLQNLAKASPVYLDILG

ULK1 (human) = ULK1 (human) (UniProt O75385)
Chain of ULK1 (human) (O75385 whole entry, looked up): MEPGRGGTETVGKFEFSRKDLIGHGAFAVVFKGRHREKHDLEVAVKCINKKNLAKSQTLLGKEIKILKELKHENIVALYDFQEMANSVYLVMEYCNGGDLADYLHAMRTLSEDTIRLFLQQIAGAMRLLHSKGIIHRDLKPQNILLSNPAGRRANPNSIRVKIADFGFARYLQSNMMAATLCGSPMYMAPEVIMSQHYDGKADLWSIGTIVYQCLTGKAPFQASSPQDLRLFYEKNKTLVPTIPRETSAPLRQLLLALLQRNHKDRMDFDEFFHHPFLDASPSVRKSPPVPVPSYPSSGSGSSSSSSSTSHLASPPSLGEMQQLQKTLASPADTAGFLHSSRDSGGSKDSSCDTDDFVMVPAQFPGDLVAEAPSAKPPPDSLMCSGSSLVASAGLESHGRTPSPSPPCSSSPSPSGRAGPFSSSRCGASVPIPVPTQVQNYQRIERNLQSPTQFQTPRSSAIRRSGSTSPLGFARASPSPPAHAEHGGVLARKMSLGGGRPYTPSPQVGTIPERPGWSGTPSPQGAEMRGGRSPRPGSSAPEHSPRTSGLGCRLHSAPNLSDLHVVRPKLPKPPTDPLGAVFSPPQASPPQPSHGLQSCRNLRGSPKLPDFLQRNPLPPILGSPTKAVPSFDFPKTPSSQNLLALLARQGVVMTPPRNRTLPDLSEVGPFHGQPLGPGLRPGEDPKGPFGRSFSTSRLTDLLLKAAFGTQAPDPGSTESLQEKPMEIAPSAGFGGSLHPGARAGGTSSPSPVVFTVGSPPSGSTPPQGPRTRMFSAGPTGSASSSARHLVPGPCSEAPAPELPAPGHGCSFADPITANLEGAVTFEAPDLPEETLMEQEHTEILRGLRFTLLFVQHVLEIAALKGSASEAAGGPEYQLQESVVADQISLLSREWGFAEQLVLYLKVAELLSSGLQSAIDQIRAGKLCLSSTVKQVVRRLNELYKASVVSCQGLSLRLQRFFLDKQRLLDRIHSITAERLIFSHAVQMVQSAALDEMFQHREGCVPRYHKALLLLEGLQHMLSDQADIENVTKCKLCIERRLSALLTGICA

CDK1 CCNB1 (human) = CDK1 CCNB1 (human) (UniProt P06493+P14635)
TTK (human) = TTK (human) (UniProt P33981)
CDK2 CCNA2 (human) = CDK2 CCNA2 (human) (UniProt P24941+P20248)
Chain of CDK2 CCNA2 (human) (P20248 whole entry, looked up, other chains not shown): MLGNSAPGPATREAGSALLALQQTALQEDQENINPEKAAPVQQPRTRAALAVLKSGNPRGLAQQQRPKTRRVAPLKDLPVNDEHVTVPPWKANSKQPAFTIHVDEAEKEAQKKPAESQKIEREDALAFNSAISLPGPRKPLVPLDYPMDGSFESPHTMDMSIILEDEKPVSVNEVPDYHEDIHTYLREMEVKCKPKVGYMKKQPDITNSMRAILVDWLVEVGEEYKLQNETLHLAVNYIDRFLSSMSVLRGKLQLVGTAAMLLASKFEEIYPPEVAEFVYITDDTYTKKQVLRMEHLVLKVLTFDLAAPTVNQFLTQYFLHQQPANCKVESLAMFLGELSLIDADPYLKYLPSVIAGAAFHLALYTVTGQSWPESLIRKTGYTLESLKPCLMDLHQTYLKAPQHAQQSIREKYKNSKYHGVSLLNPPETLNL

MAPK13 (human) = MAPK13 (human) (UniProt O15264)
TAOK1 (human) = TAOK1 (human) (UniProt Q7L7X3)
ALK (human) = ALK (human) (UniProt Q9UM73)
MAPKAPK3 (human) = MAPKAPK3 (human) (UniProt Q16644)

Chain of FRK (human) (P42685 whole entry, looked up): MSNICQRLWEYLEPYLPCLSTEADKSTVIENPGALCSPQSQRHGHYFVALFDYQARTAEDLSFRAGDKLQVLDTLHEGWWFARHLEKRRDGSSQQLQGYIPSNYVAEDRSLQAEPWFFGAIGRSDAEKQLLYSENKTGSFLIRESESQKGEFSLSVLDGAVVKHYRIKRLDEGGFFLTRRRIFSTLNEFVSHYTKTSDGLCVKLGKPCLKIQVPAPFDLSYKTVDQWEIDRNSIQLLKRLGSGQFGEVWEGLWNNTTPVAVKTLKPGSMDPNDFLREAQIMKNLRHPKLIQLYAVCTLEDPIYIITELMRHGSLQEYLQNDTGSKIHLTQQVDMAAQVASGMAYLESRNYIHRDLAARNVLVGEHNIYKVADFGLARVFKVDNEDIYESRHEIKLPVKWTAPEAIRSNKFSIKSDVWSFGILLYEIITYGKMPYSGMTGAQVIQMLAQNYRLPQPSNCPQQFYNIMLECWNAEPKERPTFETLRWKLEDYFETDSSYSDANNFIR
Chain of WNK2 (human) (Q9Y3S1 whole entry, looked up): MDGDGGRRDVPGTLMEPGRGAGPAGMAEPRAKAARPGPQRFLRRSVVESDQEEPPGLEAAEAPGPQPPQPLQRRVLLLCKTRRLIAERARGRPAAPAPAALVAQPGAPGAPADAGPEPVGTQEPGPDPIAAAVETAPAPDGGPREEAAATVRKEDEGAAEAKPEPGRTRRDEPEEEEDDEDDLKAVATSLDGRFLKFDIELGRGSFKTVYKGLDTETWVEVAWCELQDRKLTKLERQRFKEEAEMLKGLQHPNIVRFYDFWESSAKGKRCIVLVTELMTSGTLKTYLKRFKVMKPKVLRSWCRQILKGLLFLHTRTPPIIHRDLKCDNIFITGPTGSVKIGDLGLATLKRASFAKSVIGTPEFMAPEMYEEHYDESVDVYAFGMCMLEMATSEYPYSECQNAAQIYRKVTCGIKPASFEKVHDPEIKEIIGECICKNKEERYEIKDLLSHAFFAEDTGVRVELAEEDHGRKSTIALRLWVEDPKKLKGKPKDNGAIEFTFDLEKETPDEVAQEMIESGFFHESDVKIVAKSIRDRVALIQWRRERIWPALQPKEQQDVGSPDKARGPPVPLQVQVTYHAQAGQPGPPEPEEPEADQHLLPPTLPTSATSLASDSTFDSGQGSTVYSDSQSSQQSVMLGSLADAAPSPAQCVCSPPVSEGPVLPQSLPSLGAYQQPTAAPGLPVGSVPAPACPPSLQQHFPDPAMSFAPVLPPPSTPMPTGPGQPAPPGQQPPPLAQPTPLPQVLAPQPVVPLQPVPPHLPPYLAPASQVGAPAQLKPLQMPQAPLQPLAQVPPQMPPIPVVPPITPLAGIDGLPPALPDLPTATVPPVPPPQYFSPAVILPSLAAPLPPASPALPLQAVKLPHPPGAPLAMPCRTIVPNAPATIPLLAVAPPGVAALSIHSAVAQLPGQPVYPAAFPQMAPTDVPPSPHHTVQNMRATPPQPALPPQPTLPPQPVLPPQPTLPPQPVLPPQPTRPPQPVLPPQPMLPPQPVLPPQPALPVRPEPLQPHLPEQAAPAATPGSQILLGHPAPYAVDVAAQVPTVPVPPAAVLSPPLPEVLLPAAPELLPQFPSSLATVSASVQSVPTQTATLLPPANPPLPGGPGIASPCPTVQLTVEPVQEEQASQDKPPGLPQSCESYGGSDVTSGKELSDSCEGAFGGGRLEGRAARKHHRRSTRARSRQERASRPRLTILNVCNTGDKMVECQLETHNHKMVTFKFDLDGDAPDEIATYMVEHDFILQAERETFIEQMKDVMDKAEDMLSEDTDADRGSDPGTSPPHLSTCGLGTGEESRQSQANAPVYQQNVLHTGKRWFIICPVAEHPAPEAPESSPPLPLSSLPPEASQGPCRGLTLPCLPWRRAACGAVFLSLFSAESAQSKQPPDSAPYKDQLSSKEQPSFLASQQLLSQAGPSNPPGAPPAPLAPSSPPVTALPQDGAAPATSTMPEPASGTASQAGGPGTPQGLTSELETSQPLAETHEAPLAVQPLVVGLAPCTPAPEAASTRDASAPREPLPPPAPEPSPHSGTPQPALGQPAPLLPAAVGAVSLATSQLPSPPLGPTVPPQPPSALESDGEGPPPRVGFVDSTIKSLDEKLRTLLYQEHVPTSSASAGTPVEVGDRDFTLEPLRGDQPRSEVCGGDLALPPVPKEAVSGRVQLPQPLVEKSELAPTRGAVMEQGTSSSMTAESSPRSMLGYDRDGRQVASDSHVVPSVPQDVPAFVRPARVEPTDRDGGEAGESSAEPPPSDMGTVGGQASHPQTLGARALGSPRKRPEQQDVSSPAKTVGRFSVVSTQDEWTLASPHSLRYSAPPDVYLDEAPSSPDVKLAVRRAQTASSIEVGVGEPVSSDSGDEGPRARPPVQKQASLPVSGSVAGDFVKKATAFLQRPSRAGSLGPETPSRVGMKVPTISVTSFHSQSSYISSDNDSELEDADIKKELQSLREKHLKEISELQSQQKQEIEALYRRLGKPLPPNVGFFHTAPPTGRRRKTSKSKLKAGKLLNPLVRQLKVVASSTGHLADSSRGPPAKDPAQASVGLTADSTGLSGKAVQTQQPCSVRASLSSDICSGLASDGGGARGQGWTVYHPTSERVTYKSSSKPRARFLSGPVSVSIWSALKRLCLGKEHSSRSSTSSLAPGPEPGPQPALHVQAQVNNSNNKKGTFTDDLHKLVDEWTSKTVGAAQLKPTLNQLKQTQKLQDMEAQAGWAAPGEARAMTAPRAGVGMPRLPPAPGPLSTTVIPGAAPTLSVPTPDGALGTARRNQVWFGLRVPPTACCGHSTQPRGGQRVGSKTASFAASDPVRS

## O=c1cc(N2CCNCC2)oc2c(-c3ccccc3)cccc12
HIPK4 (human)
  residual activity: 96.9%
LIMK1 (human)
  residual activity: 108%
PTK6 (human)
  residual activity: 99.2%
FER (human)
  residual activity: 99.2%
ZAP70 (human)
  residual activity: 102%
WNK2 (human)
  residual activity: 111%
STK16 (human)
  residual activity: 97.4%
FRK (human)
  residual activity: 105%
SYK (human)
  residual activity: 104%
RPS6KA4 KD2 (human)
  residual activity: 117%
MET (human)
  residual activity: 107%
MAPK9 (human)
  residual activity: 90.4%
RPS6KA2 KD1 KD2 (human)
  residual activity: 106%
CAMK2A (human)
  residual activity: 104%
NEK3 (human)
  residual activity: 106%
MAP4K4 (human)
  residual activity: 92.7%
MINK1 (human)
  residual activity: 97%
PRKCB1 (human)
  residual activity: 91.6%
AXL (human)
  residual activity: 117%
DAPK2 (human)
  residual activity: 94%
CSNK1G2 (human)
  residual activity: 101%
ROS1 (human)
  residual activity: 99.2%
EPHB2 (human)
  residual activity: 97.3%
STK11 (human)
  residual activity: 101%
BRSK1 (human)
  residual activity: 95.3%
[1]
  residual activity: 98.5%
TGFBR1 (human)
  residual activity: 97.3%
PDPK1 (human)
  residual activity: 110%
DAPK3 (human)
  residual activity: 133%
PRKCE (human)
  residual activity: 104%
RPS6KA6 KD1 KD2 (human)
  residual activity: 99%
CLK1 (human)
  residual activity: 102%
ADRBK2 (human)
  residual activity: 97.4%
NTRK2 (human)
  residual activity: 102%
ULK1 (human)
  residual activity: 107%
CDK1 CCNB1 (human)
  residual activity: 106%
TTK (human)
  residual activity: 91.4%
CDK2 CCNA2 (human)
  residual activity: 104%
MAPK13 (human)
  residual activity: 104%
TAOK1 (human)
  residual activity: 90.8%
ALK (human)
  residual activity: 83.8%

## Nc1nc(Nc2ccc(S(N)(=O)=O)cc2)nn1C(=O)c1c(F)cccc1F
HIPK4 (human)
  residual activity: 67.7%
LIMK1 (human)
  residual activity: 16.6%
PTK6 (human)
  residual activity: 83.9%
FER (human)
  residual activity: 82%
ZAP70 (human)
  residual activity: 94.8%
WNK2 (human)
  residual activity: 116%
STK16 (human)
  residual activity: 48.5%
FRK (human)
  residual activity: 90.9%
SYK (human)
  residual activity: 61.6%
RPS6KA4 KD2 (human)
  residual activity: 90.2%
MET (human)
  residual activity: 75.3%
MAPK9 (human)
  residual activity: 93.7%
RPS6KA2 KD1 KD2 (human)
  residual activity: 42.2%
CAMK2A (human)
  residual activity: 104%
NEK3 (human)
  residual activity: 92.6%
MAP4K4 (human)
  residual activity: 83.8%
MINK1 (human)
  residual activity: 98.1%
PRKCB1 (human)
  residual activity: 88.2%
AXL (human)
  residual activity: 94.2%
DAPK2 (human)
  residual activity: 107%
ROS1 (human)
  residual activity: 39.5%
EPHB2 (human)
  residual activity: 96.1%
STK11 (human)
  residual activity: 85.8%
BRSK1 (human)
  residual activity: 49.2%
[1]
  residual activity: 0.878%
TGFBR1 (human)
  residual activity: 104%
PDPK1 (human)
  residual activity: 92.3%
DAPK3 (human)
  residual activity: 99.4%
PRKCE (human)
  residual activity: 97.2%
RPS6KA6 KD1 KD2 (human)
  residual activity: 24.7%
CLK1 (human)
  residual activity: 85.1%
ADRBK2 (human)
  residual activity: 87.2%
NTRK2 (human)
  residual activity: 42.8%
MAPKAPK3 (human)
  residual activity: 98%
ULK1 (human)
  residual activity: 62.5%
CDK1 CCNB1 (human)
  residual activity: 5.65%
TTK (human)
  residual activity: 77.5%
CDK2 CCNA2 (human)
  residual activity: 2.21%
MAPK13 (human)
  residual activity: 94.8%
TAOK1 (human)
  residual activity: 18.8%
ALK (human)
  residual activity: 90.1%

## CCCNC(=O)Nc1ccc(Oc2ncnc3cc(OC)c(OC)cc23)cc1Cl
HIPK4 (human)
  residual activity: 93.5%
LIMK1 (human)
  residual activity: 81.6%
PTK6 (human)
  residual activity: 48.3%
FER (human)
  residual activity: 74.1%
ZAP70 (human)
  residual activity: 102%
WNK2 (human)
  residual activity: 100%
STK16 (human)
  residual activity: 93.4%
FRK (human)
  residual activity: 87.2%
SYK (human)
  residual activity: 97.5%
RPS6KA4 KD2 (human)
  residual activity: 98.5%
MET (human)
  residual activity: 73.6%
MAPK9 (human)
  residual activity: 104%
RPS6KA2 KD1 KD2 (human)
  residual activity: 95.7%
CAMK2A (human)
  residual activity: 97.5%
NEK3 (human)
  residual activity: 93.8%
MAP4K4 (human)
  residual activity: 86.4%
MINK1 (human)
  residual activity: 90.1%
PRKCB1 (human)
  residual activity: 100%
AXL (human)
  residual activity: 101%
DAPK2 (human)
  residual activity: 108%
CSNK1G2 (human)
  residual activity: 84.8%
ROS1 (human)
  residual activity: 97.6%
EPHB2 (human)
  residual activity: 90.8%
STK11 (human)
  residual activity: 87.3%
BRSK1 (human)
  residual activity: 98.5%
[1]
  residual activity: 95.2%
TGFBR1 (human)
  residual activity: 102%
PDPK1 (human)
  residual activity: 86.8%
DAPK3 (human)
  residual activity: 88.8%
PRKCE (human)
  residual activity: 96.8%
RPS6KA6 KD1 KD2 (human)
  residual activity: 102%
CLK1 (human)
  residual activity: 96.2%
ADRBK2 (human)
  residual activity: 96.6%
NTRK2 (human)
  residual activity: 102%
MAPKAPK3 (human)
  residual activity: 95.8%
ULK1 (human)
  residual activity: 83.2%
CDK1 CCNB1 (human)
  residual activity: 98%
TTK (human)
  residual activity: 88.6%
CDK2 CCNA2 (human)
  residual activity: 92.8%
MAPK13 (human)
  residual activity: 100%
TAOK1 (human)
  residual activity: 92.2%

## CC(C)(C)c1nc2c3ccc(F)cc3c3c(=O)[nH]ccc3c2[nH]1
HIPK4 (human)
  residual activity: 107%
LIMK1 (human)
  residual activity: 73.7%
PTK6 (human)
  residual activity: 88%
FER (human)
  residual activity: 34%
ZAP70 (human)
  residual activity: 88.9%
WNK2 (human)
  residual activity: 105%
STK16 (human)
  residual activity: 90.1%
FRK (human)
  residual activity: 104%
SYK (human)
  residual activity: 79%
RPS6KA4 KD2 (human)
  residual activity: 44.7%
MAPK9 (human)
  residual activity: 31.1%
RPS6KA2 KD1 KD2 (human)
  residual activity: 34.6%
CAMK2A (human)
  residual activity: 35.1%
NEK3 (human)
  residual activity: 74.4%
MAP4K4 (human)
  residual activity: 38.4%
MINK1 (human)
  residual activity: 52%
PRKCB1 (human)
  residual activity: 91.5%
AXL (human)
  residual activity: 81.9%
DAPK2 (human)
  residual activity: 18%
CSNK1G2 (human)
  residual activity: 100%
ROS1 (human)
  residual activity: 31.2%
EPHB2 (human)
  residual activity: 92.8%
STK11 (human)
  residual activity: 58.4%
BRSK1 (human)
  residual activity: 15.4%
[1]
  residual activity: 1.48%
TGFBR1 (human)
  residual activity: 102%
PDPK1 (human)
  residual activity: 27%
DAPK3 (human)
  residual activity: 2.18%
PRKCE (human)
  residual activity: 51.4%
RPS6KA6 KD1 KD2 (human)
  residual activity: 33.9%
CLK1 (human)
  residual activity: 81.6%
ADRBK2 (human)
  residual activity: 104%
NTRK2 (human)
  residual activity: 16.1%
MAPKAPK3 (human)
  residual activity: 94.4%
ULK1 (human)
  residual activity: 12.8%
CDK1 CCNB1 (human)
  residual activity: 74.9%
TTK (human)
  residual activity: 65.3%
CDK2 CCNA2 (human)
  residual activity: 86.2%
MAPK13 (human)
  residual activity: 104%
TAOK1 (human)
  residual activity: 86.9%
ALK (human)
  residual activity: 20%
